A melting point compilation (Tetko et al.; mined from patent text by program, amines drawn as free bases though some values may be those of a salt)

First: Cn1cc(C2=C(c3cn(CCCC#N)c4ccccc34)C(=O)NC2=O)c2ccccc21
Second: Cc1c2c(cn1C)NC(=O)C(OC(=O)CCCN1C(=O)c3ccccc3C1=O)N=C2c1ccccc1 (stereo unspecified)
The melting point of the first is higher: 245 to 247 °C for the first, 210 to 212 °C for the second.

First: CC1(CCl)C(C(=O)OCC(Cl)(Cl)Cl)N2C(=O)C(NC(=O)Cc3ccccc3)C2S1=O (stereo unspecified)
Second: CCc1occc(=O)c1OCc1ccccc1
The melting point of the first is higher: 130 to 131 °C for the first, 33 to 34 °C for the second.

Compared with `CCCCc1oc2ccccc2c1C(=O)NCc1ccc2cc(OCC(=O)OC)ccc2c1`, `COCc1c(C(=O)OCCO)ncc2[nH]c3ccc(OCc4ccccc4)cc3c12` is higher in melting point: 142 to 143 °C for the first, 165 to 167 °C for the second.

Compared with `CC(C)c1ccc(S(=O)(=O)c2ccccc2)cc1S(=O)(=O)NC1CCN(C(=O)c2ccccc2F)CC1`, `O=C(O)[C@H](Cc1ccccc1)NS(=O)(=O)c1ccc(N2CCC(c3ccccc3)CC2)cc1` is lower in melting point: 210 to 212 °C for the first, 167 to 169 °C for the second.

First: CCOP(=O)(CCN1CCC(N(C)S(=O)(=O)c2ccc(Nc3nccc(Nc4ccc(F)c(F)c4)n3)cc2)CC1)OCC
Second: CCCCCCOc1ccc(NS(=O)(=O)c2ccc(N3CCNC3=O)cc2)cc1
The melting point of the first is lower: 93 to 96 °C for the first, 225 to 226 °C for the second.

Compared with `COc1ccc(C(OCC2OC(n3cnc4c(NC(=O)c5ccccc5)ncnc43)C(O)C2O[Si](C)(C)C(C)(C)C)(c2ccccc2)c2ccccc2)cc1` (stereo unspecified), `Cc1ccccc1-c1nc2c(s1)C(S(=O)(=O)Cc1ccccc1)Cc1c(OCC(=O)O)cccc1-2` (stereo unspecified) is higher in melting point: 189 °C for the first, 192 to 193 °C for the second.

First: Cc1nc2cccc3n(CCCNS(=O)(=O)CC(F)(F)F)c(=O)c1n23
Second: Cc1c(Cl)cc(C(C)(C)C)c(O)c1-c1nc2cc(S(=O)(=O)C(F)(F)F)ccc2[nH]1
The melting point of the first is lower: 157 to 158 °C for the first, 174 to 176 °C for the second.

First: CS(=O)(=O)N(Cc1cccnc1)Cc1ccc(Cl)cc1Cl
Second: CCCOc1ccc(-c2cncn2-c2ccc(S(C)(=O)=O)cc2)cc1
The melting point of the first is lower: 78 to 80 °C for the first, 167 to 169 °C for the second.

First: CCOC(=O)c1cn(C2CC2)c2c(F)c(F)c(F)cc2c1=O
Second: Cn1c(C(F)(F)F)cc(=O)n(-c2cc(OCC(N)=O)c(Cl)cc2F)c1=O
The melting point of the first is higher: 167 to 168 °C for the first, 104 to 106 °C for the second.

Compared with `CC(C)(C)OC(=O)N1CCC(n2nc(-c3c(-c4ccccc4)nn4ccccc34)ccc2=O)CC1`, `N#Cc1c(N2CCCCC2)cc(-c2ccccc2)c2c1-c1ccccc1C2=O` is higher in melting point: 152 to 153 °C for the first, 166 to 168 °C for the second.

First: COC(=O)c1cc(Cl)cc2ccoc12
Second: COC(=O)C1=C(C(=O)OC)C2(c3ccc(Cl)cc3)CCC1O2 (stereo unspecified)
The melting point of the first is higher: 144 to 145 °C for the first, 90 to 91 °C for the second.

First: CC(C)(O)c1nc(CO)n(Cc2ccc(-c3ccccc3-c3nnn[nH]3)cc2)c1C(=O)O
Second: CCCc1nc(C(O)C(C)(C)C)c(C(N)=O)n1Cc1ccc(-c2ccccc2C(=O)C(=O)O)cc1 (stereo unspecified)
The melting point of the first is higher: 201 to 202 °C for the first, 128 to 130 °C for the second.

First: O=C(c1ccnc(F)c1)N1CCC[C@H](c2nc(-c3ccc(F)cc3)no2)C1
Second: O=C(NCCN1CCOCC1)Nc1nc2ccc(OCc3c(F)cccc3F)cc2s1
The melting point of the first is lower: 93 to 95 °C for the first, 219 °C for the second.

`Cc1nc(-c2ccccc2)nc(-c2cccc([N+](=O)[O-])c2)c1C(C)N1CCN(C)CC1` (stereo unspecified) and `CCOC(=O)c1c(C)nc(-c2ccccc2)nc1-c1cc([N+](=O)[O-])ccc1S(C)=O` (stereo unspecified) cannot be ordered by melting point: 130 to 131 °C for the first, 130 to 132 °C for the second.

First: CCCS(=O)CC(=O)NNC(=O)N1Cc2ccccc2Oc2ccc(Cl)cc21 (stereo unspecified)
Second: CCOC(=O)c1ccc(N2CCN(CC(=O)c3ccc(Cl)cc3)CC2)cc1
The melting point of the first is higher: 158 to 160 °C for the first, 150 to 152 °C for the second.

Compared with `CNC(=O)CN1CCc2cc(Nc3ncc(Cl)c(Nc4cc(Cl)ccc4OC)n3)c(OC)cc2CC1`, `COc1cc(Nc2c(C#N)cnc3cc(-c4ccsc4CN4CCOCC4)ccc23)c(Cl)cc1Cl` is lower in melting point: 127 to 136 °C for the first, 98 to 100 °C for the second.

First: N#Cc1cc(C(=O)O)cnc1Br
Second: CCCCOc1c(OC)cc(C(=O)O)cc1[N+](=O)[O-]
The melting point of the first is higher: 170 to 172 °C for the first, 114 to 115 °C for the second.

First: Nc1ccc(Sc2cnc3cc(Cl)ccc3n2)cc1
Second: CSc1ncc2cc(-c3c(Cl)cccc3Cl)c(N)nc2n1
The melting point of the first is lower: 144 to 147 °C for the first, 250 to 253 °C for the second.

Compared with `O=C1CCC(c2ccccc2)(c2ccccc2)[C@@H]2CN(C(=O)Cc3c(F)cccc3F)C[C@H]12` (racemic), `CS(=O)(=O)c1ccc(-c2sc(-c3ccccc3Cl)nc2-c2ccccc2F)cc1` is lower in melting point: 218 °C for the first, 163 to 166 °C for the second.

First: CN(C)Cc1cc(CSCCNc2ncc([N+](=O)[O-])c(=O)[nH]2)cs1
Second: CC1CC(=O)c2cc([N+](=O)[O-])cnc2C1 (stereo unspecified)
The melting point of the first is higher: 150 to 153 °C for the first, 64 to 67 °C for the second.

Compared with `O=C(NC(Cc1c[nH]c2ccccc12)C(=O)C(=O)CCl)OC1C2CC3CC(C2)CC1C3` (stereo unspecified), `CNC(CO)CCOc1cccc2ccccc12` (stereo unspecified) is higher in melting point: 56 to 63 °C for the first, 101 to 102 °C for the second.

First: Nc1cnnc(Cl)c1Cl
Second: O=C(O)c1cc(CO)nn1-c1ncccc1Cl
The melting point of the first is lower: 150 to 151 °C for the first, 178 to 180 °C for the second.

First: O=C(O)c1cnc2n(c1=O)CCc1ccccc1-2
Second: CCC(O)(C(=O)NC(C)c1ccccc1)c1cc2n(c(=O)c1CO)CCC21OCCO1 (stereo unspecified)
The melting point of the first is higher: 215 to 217 °C for the first, 115 to 116 °C for the second.

First: COc1cc(C(=O)CCC(=O)c2cc(OCc3ccccc3)c(O)c(S(=O)(=O)CCO)c2)cc(OC)c1OC
Second: CCc1ncnc2ccc(C#Cc3cc(OC)ccc3OC)cc12
The melting point of the first is higher: 129 to 130 °C for the first, 103 to 105 °C for the second.

Compared with `Cc1cc2cc(C3CCN(C(=O)C4CC4)CC3)oc2cc1C`, `COC(=O)[C@H]1CC[C@H](n2cnn(-c3ccc(C4CCN(C(=O)C(F)(F)F)CC4)cc3)c2=O)CC1` is higher in melting point: 80 to 83 °C for the first, 184 to 186 °C for the second.

Compared with `CN(O)C(=O)C=Cc1ccc2ccccc2c1`, `C=C(C)C(=O)N1c2ccccc2Sc2ccc(OC)cc21` is lower in melting point: 138 to 140 °C for the first, 91 to 92 °C for the second.

First: Cc1ccc2c(c1)CNC(=O)CC2
Second: O=C1NC(=C2CCCC2)Sc2ccccc21
The melting point of the first is lower: 174 to 175 °C for the first, 190 to 191 °C for the second.

First: CSC1=Nc2cc(Cl)ccc2N(C)c2cscc21
Second: Nc1nc(-c2ccccc2)c(F)c(=O)[nH]1
The melting point of the first is lower: 156 to 158 °C for the first, 276 to 278 °C for the second.

Compared with `COCCOc1cc2ncnc(NC3=CC(=O)C(N4CCOCC4)=CC3=O)c2cc1OC`, `COc1cc2ncnc(N3CCN(C(=S)NCc4ccc([N+](=O)[O-])cc4)CC3)c2cc1OC` is lower in melting point: 239 to 243 °C for the first, 214 to 216 °C for the second.

First: O=C(CCCCCCCCCCS(=O)c1ccccc1[N+](=O)[O-])OCc1ccccc1 (stereo unspecified)
Second: COc1ccc(CSc2ccc([N+](=O)[O-])cc2CNCCc2ccccc2)cc1
The melting point of the first is lower: 37 to 38 °C for the first, 80 to 85 °C for the second.

First: CCCCN(CC)CC(=O)N1c2ccccc2NC(=O)c2cncnc21
Second: CCc1cc2c(SCc3ccccc3)ncnc2s1
The melting point of the first is higher: 151 to 152 °C for the first, 54 to 60 °C for the second.

First: CC(=O)Oc1c(C)cc(NC(=O)NC2=C(c3ccccc3)c3ccccc3CS2)cc1C
Second: Cc1cc(C(=O)Nc2cnccc2C)c2c(C)nn(-c3ccccc3)c2n1
The melting point of the first is lower: 206 to 208 °C for the first, 227 to 228 °C for the second.

Compared with `C[C@]1(CN2CCC(OCc3ccc(C(F)(F)F)cc3)CC2)Cn2cc([N+](=O)[O-])nc2O1`, `CCc1ccc(Nc2nc3cc(NC(=O)c4cc(F)cc(C(F)(F)F)c4)ccc3o2)cc1` is higher in melting point: 91 to 92 °C for the first, greater than 250 °C for the second.

Compared with `CCOCc1nc2c(N)nc3ccccc3c2n1CC1(O)CCN(C(=O)OCC)CC1`, `CCCCCCOc1ccc2[nH]c(C)c(CC(=O)O)c2c1` is lower in melting point: 165 to 167 °C for the first, 65 to 67 °C for the second.

Compared with `CCCCCCCCC/C=C/C(=O)N[C@H]1CCCNC(=O)C1`, `COC1=C(OC)C(=O)C(CCCCCCCCCOC(C)=O)=C(C)C1=O` is lower in melting point: 87 to 88 °C for the first, 30 °C for the second.

First: ONc1cccc(OCc2nc3ccccc3s2)c1
Second: CN(CC(=O)Nc1ccc2[nH]ncc2c1)Cc1ccccc1
The melting point of the first is lower: 112 to 114 °C for the first, 159 to 160 °C for the second.

Compared with `CC(=O)N1CCN(c2ccc(Nc3nccc(-c4sc(-c5ccc(N6CCOCC6)cc5)nc4C)n3)cc2)CC1`, `Cc1ccc(-c2ccc3c(c2)C=C(C(=O)NC2CCN(CCC4CCCCC4)CC2)CCO3)cc1` is lower in melting point: 250 to 252 °C for the first, 193 to 196 °C for the second.

First: CC(C)(NC(=O)C(O)C(N)Cc1ccc(S(C)(=O)=O)cc1)C(=O)O (stereo unspecified)
Second: COC(=O)c1c(N)cccc1S(=O)(=O)NC(C)(C)C
The melting point of the first is higher: 220 to 222 °C for the first, 132 to 133 °C for the second.

First: COC(=O)c1ccc(Oc2cc3c(cc2C(C)C)C(C)(C)CCC3(C)C)cc1
Second: CCC(Oc1cc(Cl)cc(Cl)c1)C(=O)NC(C)(C)C#CCOC (stereo unspecified)
The melting point of the first is higher: 115 to 116 °C for the first, 103 to 104 °C for the second.

Compared with `CC(=O)Nc1ccc(S(=O)(=O)Nc2cccc(N(C)C(C)=O)c2)cc1`, `CCOC(=O)C(CC)Cc1ccc(NC(=O)Cc2ccc(-n3cccc3)cc2)cc1` (stereo unspecified) is lower in melting point: 258 to 260 °C for the first, 100 to 102 °C for the second.

First: Fc1ccc2c(c1)Cc1sc(NCCCN3CCOCC3)nc1-2
Second: CC(=O)NCC1CN(c2ccc(N3CCN(C4=NC(=O)CS4)CC3)c(F)c2)C(=O)O1 (stereo unspecified)
The melting point of the first is lower: 113 to 115 °C for the first, 225 to 227 °C for the second.

Compared with `CCN[C@H]1CCC[C@H](Oc2ccc3[nH]ncc3c2)C1` (relative stereo), `CC(=O)N[C@H]1CC[C@H](c2ccc(S(N)(=O)=O)cc2)CC1` is higher in melting point: 116 to 118 °C for the first, 268 to 269 °C for the second.

Going from `CCOC(=O)CSc1nc(C(C)(C)C)n[nH]1` to `CCOC(=O)C1Cc2c([nH]c3cccc(C#N)c23)CN1` (stereo unspecified), the melting point rises from 93 °C to 248 °C.

Compared with `CN1c2ccc(-c3cccc4ccccc34)cc2S(=O)(=O)c2cc(-c3cccc4ccccc34)ccc21`, `CN1C2=CC=CN(CCc3ccc(OCc4ccccc4)cc3)C2=Nc2ccccc2S1(=O)=O` is lower in melting point: 221 to 225 °C for the first, 133 to 134 °C for the second.

First: OCCC[C@H]1OC[C@H](c2ccc(Cl)c3ccccc32)CO1
Second: CC(Cc1ccc(O)cc1)NCC(O)c1cc2ccccc2o1 (stereo unspecified)
The melting point of the first is lower: 127 to 129 °C for the first, 135 to 138 °C for the second.

First: CSc1sc(C2NCCO2)c2c1C(=O)CC(C)(C)C2 (stereo unspecified)
Second: COc1ccc(C2CN(O)C3(C)CCCCC23)cc1OC (stereo unspecified)
The melting point of the first is higher: 190 to 193 °C for the first, 147 to 149 °C for the second.

First: Cc1n[nH]c2cc(-c3ccc4nnn(Cc5ccc6ncccc6c5)c4n3)ccc12
Second: N#Cc1cc(=O)c2c(o1)c1ccccc1n2-c1ccccc1
The melting point of the first is lower: 136 to 137 °C for the first, 192 to 193 °C for the second.

Compared with `NC(=S)Nc1cnccn1`, `CC(C)(C)OC(=O)CCC(CCC(=O)OC(C)(C)C)(CCC(=O)OC(C)(C)C)NC(=O)C=C=C[N+](=O)[O-]` is lower in melting point: 234 to 235 °C for the first, 140 to 141 °C for the second.
